Where two headings read alike, the source gives them in different places. Blank lines part the entries; values can stand above or below the molecule they belong to. Ends that are not written are not given here. Peptide text beside a SMILES is read from it.
Tests used:
CXCR2 = target: T1, CXCR2 (Homo sapiens, UniProt P25025); assay: Binding specificity, CXCR2 transfected in 293 cells; conditions: CXCR2 transfected 293 cells; peptide at 10 μM (FIG. 4 legend)
T1 construct: expressed in transfected cells; host or cells: 293 cells
T1 sequence (P25025 1-360): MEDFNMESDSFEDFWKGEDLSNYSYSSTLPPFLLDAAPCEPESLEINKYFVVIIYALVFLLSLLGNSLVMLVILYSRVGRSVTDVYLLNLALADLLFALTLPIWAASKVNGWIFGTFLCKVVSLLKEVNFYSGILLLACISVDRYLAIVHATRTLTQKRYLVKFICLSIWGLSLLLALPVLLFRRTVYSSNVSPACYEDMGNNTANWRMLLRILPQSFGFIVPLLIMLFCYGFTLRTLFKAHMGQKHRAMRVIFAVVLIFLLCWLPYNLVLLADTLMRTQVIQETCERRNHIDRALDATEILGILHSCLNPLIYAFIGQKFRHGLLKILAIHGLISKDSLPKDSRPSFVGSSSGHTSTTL
Description: (§1) Chemokine binding to the target cells, human eosinophils and 293/CCR3 cells, was carried out using a modification of a method previously reported. Cells were washed once in PBS and resuspended in binding buffer (50 mM HEPES, 1 mM CaCl2, 5 mM MgCl2, and 0.5% BSA) at a concentration of 1×10^7/mL. Aliquots of 50 μL (5×10^5 cells) were dispensed into microfuge tubes, followed by the addition of cold and radiolabeled chemokines. The final reaction volume was 200 μL. Nonspecific binding was determined by incubating cells with radiolabeled chemokines in the presence of increasing amounts of (250-500 nM) of cold chemokine. After 60-min incubation, at room temperature, the cells were washed three times with 1 ml of binding buffer plus 0.5 M NaCl. Cell pellets were then counted. All experiments were carried out using duplicates and repeated at least three times. Curve fit was calculated by Kaleidagraph™ software (Synergy Software, Reading, Pa.). Inhibition of binding was assessed by the addition of test inhibitor compound at the indicated concentrations, and incubation for 30 min prior to addition of the chemokine as above.
(§2) The compound was used in the binding assay to compete with CXCR4, CXCR2, CCR2, and CCR3 transfected in 293 cells. […] The data are representative of three independent experiments.

human eosinophils [1] = assay: Cell viability by MTT incorporation; format: cell-based; conditions: after 24 hours
Description: In FIG. 5, cell viability in presence of SC004411 was assayed with MTT incorporation. […] The data are representative of three independent experiments.

CCR2 = target: T2, CCR2 (Homo sapiens, UniProt P41597); assay: Binding specificity, CCR2 transfected in 293 cells; conditions: CCR2 transfected 293 cells; peptide at 10 μM (FIG. 4 legend)
T2 construct: expressed in transfected cells; host or cells: 293 cells
Description: as §1, §2

human eosinophils [2] = format: cell-based
Description: Human eosinophils were prepared by isolation from the blood of donor individuals with high levels of circulating blood eosinophils (5-17%) by combining density gradient centrifugation and negative selection with anti-CD16 magnetic beads. Briefly, the granulocyte fraction from the Percoll centrifugation was incubated with CD16 micro beads (miniMACS™, separation unit) for 30 minutes. Cells were then passed through a MACS™ column (Miltenyi Biotec, Inc., Auburn, Calif.) and eosinophils were collected in the flow through. Eosinophil purity was >98% as determined by analysis of Diff-Quik™ (Baxter) stained cytocentrifugation preparations by light microscopy. Intracellular free calcium was measured using the fluorescent probe Fluo-3. Cell suspensions (10^7 cells/ml) were loaded with Fluo-3/AM (1 μM, 30 minutes at 37° C), washed, resuspended at 2×10^6 cells/ml in Hanks' balanced salt solution (HBSS) and their fluorescence monitored in a spectrofluorometer (SLM 8000, SLM-Aminco, Champagne, Ill., USA) (excitation and emission wavelengths, 500 and 530 nm, respectively) The internal calcium concentrations were calculated as described in Tsien et al. (J. Cell. Biol. 94: 3325-3334, 1982). Each assay was individually calibrated.

CCR3 = target: T3, CCR3 (Homo sapiens, UniProt P51677); assay: Binding specificity, CCR3 transfected in 293 cells; conditions: CCR3 transfected 293 cells; peptide at 10 μM (FIG. 4 legend)
T3 construct: expressed in transfected cells; host or cells: 293 cells
T3 sequence (P51677 1-355): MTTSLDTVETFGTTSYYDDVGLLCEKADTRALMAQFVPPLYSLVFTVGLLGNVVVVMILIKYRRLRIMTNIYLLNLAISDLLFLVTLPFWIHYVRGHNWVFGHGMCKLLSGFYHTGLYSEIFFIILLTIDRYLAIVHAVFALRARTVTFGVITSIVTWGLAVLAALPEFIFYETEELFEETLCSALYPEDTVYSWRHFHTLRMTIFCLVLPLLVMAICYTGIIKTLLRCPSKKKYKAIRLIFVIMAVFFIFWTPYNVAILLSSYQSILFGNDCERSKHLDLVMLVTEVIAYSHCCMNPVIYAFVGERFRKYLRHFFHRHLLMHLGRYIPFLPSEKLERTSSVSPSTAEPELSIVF
Description: as §1, §2

CXCR4 = target: T4, CXCR4 (Homo sapiens, UniProt P61073); assay: Binding specificity, CXCR4 transfected in 293 cells; conditions: CXCR4 transfected 293 cells; peptide at 10 μM (FIG. 4 legend)
T4 construct: expressed in transfected cells; host or cells: 293 cells
Description: as §1, §2

human eosinophils [3] = format: cell-based; remark: listed apart in the source
Description: Human eosinophils were prepared by isolation from the blood of donor individuals with high levels of circulating blood eosinophils (5-17%) by combining density gradient centrifugation and negative selection with anti-CD16 magnetic beads. Briefly, the granulocyte fraction from the Percoll centrifugation was incubated with CD16 micro beads (miniMACS™, separation unit) for 30 minutes. Cells were then passed through a MACS™ column (Miltenyi Biotec, Inc., Auburn, Calif.) and eosinophils were collected in the flow through. Eosinophil purity was >98% as determined by analysis of Diff-Quik™ (Baxter) stained cytocentrifugation preparations by light microscopy. Leukocyte chemotaxis was assessed on eosinophils, using a modification of a transendothelial assay. The endothelial cells used in this assay were the endothelial cell line, ECV 304, obtained from the European collection of Animal Cell Cultures (Porton Downs, Salisbury, U.K.). Endothelial cells were cultured on 6.5 mm diameter Transwell™ culture inserts (Costar Corp., Cambridge, Mass.) with 3.0 μm pore size. The assay media consisted of equal parts RPMI 1640 and M199 with 0.5% BSA. […] The cells that had migrated to the bottom chamber were counted using flow cytometry. […] Inhibitor potency was determined by comparison of cell numbers migrated to the bottom chamber, with or without inhibitor. […]

human eosinophils [4] = format: cell-based; remark: listed apart in the source
human eosinophils [5] = assay: Cytotoxicity, lysis of 51Cr-labeled cells; format: cell-based; conditions: cells cultured in presence of the peptide
Description: To exclude the possible contribution of cytotoxicity of the hexapeptides to the inhibition of eosinophil function, ^51Cr-labeled cells were cultured in presence of the peptide for the indicated time.

[6] = target: T5, CCR3 on human eosinophils (human, UniProt P51677 1-355); assay: competition with 125I-eotaxin (0.3 nM) for CCR3 on human eosinophils, filtration radioligand assay
T5 construct: whole, on cells; Endogenous receptor on purified human eosinophils; also called chemokine receptor CCR3; CCR3 receptor
T5 sequence (looked up): T3 sequence (P51677 1-355)

[7] = target: T5, CCR3 on human eosinophils; assay: cell-based or functional assay

T4 sequence (P61073 whole entry, species assumed): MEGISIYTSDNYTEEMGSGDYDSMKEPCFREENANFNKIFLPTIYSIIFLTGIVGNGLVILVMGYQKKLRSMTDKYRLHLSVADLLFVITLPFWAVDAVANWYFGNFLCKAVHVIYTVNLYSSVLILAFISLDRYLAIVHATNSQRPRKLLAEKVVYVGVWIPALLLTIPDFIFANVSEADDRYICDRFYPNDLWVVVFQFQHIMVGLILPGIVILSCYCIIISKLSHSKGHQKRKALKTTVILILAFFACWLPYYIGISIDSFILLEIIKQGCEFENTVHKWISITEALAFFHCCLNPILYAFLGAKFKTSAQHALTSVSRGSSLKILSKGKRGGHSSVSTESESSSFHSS
T2 sequence (P41597 whole entry, species assumed): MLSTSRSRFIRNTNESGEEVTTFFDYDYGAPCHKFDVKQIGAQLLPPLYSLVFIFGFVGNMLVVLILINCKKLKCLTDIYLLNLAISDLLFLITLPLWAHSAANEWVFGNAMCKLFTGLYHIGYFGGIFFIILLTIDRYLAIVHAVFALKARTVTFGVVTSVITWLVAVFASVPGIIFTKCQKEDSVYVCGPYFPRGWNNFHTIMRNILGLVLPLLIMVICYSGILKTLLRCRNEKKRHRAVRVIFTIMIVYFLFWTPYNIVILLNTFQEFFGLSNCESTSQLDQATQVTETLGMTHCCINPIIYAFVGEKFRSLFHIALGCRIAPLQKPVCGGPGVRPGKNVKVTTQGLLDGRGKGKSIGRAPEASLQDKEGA

inhibition of binding to CXCR2 (CXCR2): not | inhibition of binding to CCR2 (CCR2): not | IC50 (human eosinophils [2]): ~40 µM | inhibition of eotaxin-binding to CCR3 (CCR3): specifically inhibited | inhibition of binding to CXCR4 (CXCR4): not | IC50 (human eosinophils [3]): ~20 µM
Molecule: CC(=O)N[C@@H](CS)C(=O)N[C@@H](CCCNC(=N)N)C(=O)N[C@@H](CS)C(=O)N[C@@H](C)C(=O)N[C@@H](C)C(=O)N[C@@H](CCCNC(=N)N)C(N)=O [SC004411, CRCAAR] (Ac-CRCAAR-NH2; N-terminus and C-terminus assumed)
concentration at which the compound starts to be toxic (MTT viability) (human eosinophils [1]): above 100 μM | toxicity by Trypan Blue exclusion (human eosinophils [4]): not toxic | cell lysis of 51Cr-labeled human eosinophils (human eosinophils [5]): did not cause cell lysis

IC50 [6]: ~40 µM | inhibition of eotaxin-induced calcium mobilization of human eosinophils (functional IC50) [7]: ~40 µM | inhibition of eotaxin-induced chemotaxis of human eosinophils (functional IC50) [7]: ~20 µM
B1: hexamer peptide CRCAAR (SEQ ID NO: 1), peptide SC004411 (peptide)
peptide: CRCAAR
modifications: not fully specified; cysteine pairing not given here
notes: Synthetic hexapeptide; also called compound SC004411
